Measured values from publication PMC9701195, “Structural basis for lipid and copper regulation of the ABC transporter MsbA” (Nature Communications, 2022).
Like-named read-outs stand apart in the source and are kept apart here.

Tests used:
MsbA [1] = biological target: T1, MsbA (Escherichia coli, UniProt P60752); experiment: cryoEM structure […] Å and native MS; type: binding; conditions: outward-facing, with KDL and copper(II), NBD site
T1 construct: full length, TEV-cleavable N-terminal His6 tag cut (intact native N-terminus MHND...), expressed in E. coli BL21-AI, delipidated, homodimer in C10E5
T1 sequence (P60752 whole entry): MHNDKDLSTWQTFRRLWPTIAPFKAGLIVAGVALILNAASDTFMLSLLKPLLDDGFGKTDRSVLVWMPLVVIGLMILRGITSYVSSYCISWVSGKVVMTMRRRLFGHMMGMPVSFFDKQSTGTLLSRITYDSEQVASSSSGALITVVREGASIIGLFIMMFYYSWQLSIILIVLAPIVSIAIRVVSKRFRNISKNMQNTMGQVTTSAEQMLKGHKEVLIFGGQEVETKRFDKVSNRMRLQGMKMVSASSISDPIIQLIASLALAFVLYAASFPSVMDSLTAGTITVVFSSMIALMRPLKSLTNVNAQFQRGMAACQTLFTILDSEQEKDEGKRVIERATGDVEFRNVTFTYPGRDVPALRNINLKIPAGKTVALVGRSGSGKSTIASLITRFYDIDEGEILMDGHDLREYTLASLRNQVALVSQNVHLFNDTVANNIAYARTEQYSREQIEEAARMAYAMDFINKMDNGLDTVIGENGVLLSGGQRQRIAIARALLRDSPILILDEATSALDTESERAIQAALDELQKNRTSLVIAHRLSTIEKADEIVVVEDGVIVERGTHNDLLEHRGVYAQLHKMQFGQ

MsbA [2] = biological target: T1, MsbA; experiment: biochemical; set-up: native mass spectrometry lipid titration, sequential lipid binding model, mole fractions of apo and lipid-bound MsbA; conditions: first lipid; MsbA partially loaded with copper(II); read-out: KD1
Description: Lipids were prepared as previously described, in which lipids dissolved in chloroform were dried under nitrogen flow placed under vacuum overnight followed by dissolving in water. The concentration of MsbA was determined using a DC protein assay (BioRad) with bovine serum albumin as the standard. MsbA was incubated with lipids at varying concentrations and mixed with 200 mM ammonium acetate supplemented with 2x CMC lauryldimethylamine oxide (LDAO) at 1:1 volume ratio. Samples were incubated in the nano electrospray ionization source chamber for a minute to reach equilibrium prior to data acquisition. These samples analyzed on Orbitrap Exactive Plus EMR mass spectrometer (Thermo Scientific) operating at identical settings as described above. The mass spectra for each titration event were obtained in triplicate. The mass spectra were deconvoluted using UniDec[55] and the resulting peak intensities for apo and lipid-bound protein were determined. The relative abundance for each species was determined by dividing the peak intensity by the total intensity to convert to mole fraction for each independent experiment. For MsbA (P) binding the N^th lipid (Ln), we applied the following sequential lipid binding model: PLn−1+L⇔KAPLn where: KAn=PLn/[PLn−1]L To better understand MsbA-lipid interactions, we determined equilibrium binding constants for MsbA binding to different lipids. For these studies, we selected 1,1′,2,2′-tetraoleoyl-cardiolipin (TOCDL, 72:4) or phosphatidic acid (PA), phosphatidylcholine (PC), phosphatidylethanolamine (PE), phosphatidylglycerol (PG), and phosphatidylserine (PS) containing the acyl chain composition, 1-palmitoyl-2-oleoyl (PO, 16:0-18:1). We also included 3-deoxy-D-manno-oct-2-ulosonic acid (Kdo)2-lipid A (KDL), an LPS precursor known to stimulate MsbA ATPase activity[22]–[24]. Except for PC, these lipids are found in E. coli[40]. MsbA partially and fully loaded with copper(II) was titrated with each lipid followed by recording their native mass spectra (Supplementary Figs. 3–6). The mole fractions of apo and lipid bound states of MsbA were extracted from the deconvoluted MS data and used to determine the equilibrium dissociation constant (KDN) for the Nth binding event (Supplementary Tables 4–5). […] The two tightest binding lipids for MsbA loaded with copper(II) were TOCDL (KD1 = 1.6 µM) and KDL (KD1 = 0.6 µM). POPG binding affinities were largely independent of the copper(II) bound state of MsbA. […] For MsbA with reduced copper(II) binding, additional 1 mM MgCl2 was added to all buffer and MsbA solution in the purification step using Ni-NTA beads. Copper(II) saturated MsbA was obtained by adding 20 uM copper (II) acetate then buffer exchanged using Bio-Spin column to remove excess copper(II). […]

MsbA [3] = biological target: T1, MsbA; experiment: biochemical; set-up: native mass spectrometry lipid titration of ADP-trapped open outward-facing MsbA, sequential lipid binding model; conditions: first lipid; MsbA trapped with ADP and VO4, open outward-facing; read-out: KD1
Description: Lipids were prepared as previously described, in which lipids dissolved in chloroform were dried under nitrogen flow placed under vacuum overnight followed by dissolving in water. The concentration of MsbA was determined using a DC protein assay (BioRad) with bovine serum albumin as the standard. MsbA was incubated with lipids at varying concentrations and mixed with 200 mM ammonium acetate supplemented with 2x CMC lauryldimethylamine oxide (LDAO) at 1:1 volume ratio. Samples were incubated in the nano electrospray ionization source chamber for a minute to reach equilibrium prior to data acquisition. These samples analyzed on Orbitrap Exactive Plus EMR mass spectrometer (Thermo Scientific) operating at identical settings as described above. The mass spectra for each titration event were obtained in triplicate. The mass spectra were deconvoluted using UniDec[55] and the resulting peak intensities for apo and lipid-bound protein were determined. The relative abundance for each species was determined by dividing the peak intensity by the total intensity to convert to mole fraction for each independent experiment. For MsbA (P) binding the N^th lipid (Ln), we applied the following sequential lipid binding model: PLn−1+L⇔KAPLn where: KAn=PLn/[PLn−1]L To determine the impact of MsbA conformation on lipid binding affinity, analogous experiments were performed using MsbA trapped in an open, OF conformation with adenosine diphosphate (ADP) and [compound left out] (VO4). […] For example, in the presence of 0.4 μM of KDL, [compound left out]-trapped MsbA binds up to two lipids whereas the non-trapped protein binds only one KDL (Fig. 3b–c). […] The binding of POPC and POPE are reminiscent of that for MsbA partially loaded with copper(II). […] For MsbA with reduced copper(II) binding, additional 1 mM MgCl2 was added to all buffer and MsbA solution in the purification step using Ni-NTA beads. Copper(II) saturated MsbA was obtained by adding 20 uM copper (II) acetate then buffer exchanged using Bio-Spin column to remove excess copper(II). MsbA trapped by [compound left out] was obtained by adding ATP and MgCl2 to MsbA to reach the final concentration of 10 mM for both then incubating at room temperature for 10 min. After incubation, [compound left out] (pH 10) was added to reach final concentration of […] followed by incubation at 37 °C for 10 min. MsbA samples was buffer exchanged using Bio-Spin column to 200 mM ammonium acetate supplemented with 2x CMC C10E5 for native MS studies. To prepare MsbA samples for Cryo-EM studies, MsbA and trapped MsbA were preloaded with copper(II) then purified by Superdex 200 Increase 10/300 GL size exclusion column equilibrated with 200 mM NaCl, 20 mM HEPES and 2x CMC C10E5 without glycerol. […]

[4] = biological target: the molecule itself; experiment: native MS; MsbA in 200 mM ammonium acetate with 2x CMC C10E5; Orbitrap Exactive Plus EMR; partially or fully copper(II)-loaded, also trapped with ADP and vanadate

Kd (MsbA [2]) | Kd (MsbA [3]) | Molecule | also measured
14.7 ± 1.5 µM | 2.2 ± 0.01 µM | CCCCCCCC/C=C\CCCCCCCC(=O)O[C@H](COC(=O)CCCCCCCCCCCCCCC)COP(=O)(O)O [POPA] | 
20.4 ± 1.4 µM | 15.1 ± 0.5 µM | CCCCCCCC/C=C\CCCCCCCC(=O)O[C@H](COC(=O)CCCCCCCCCCCCCCC)COP(=O)([O-])OCC[N+](C)(C)C [POPC] | 
12.4 ± 0.7 µM |  | CCCCCCCC/C=C\CCCCCCCC(=O)O[C@H](COC(=O)CCCCCCCCCCCCCCC)COP(=O)(O)OCCN [POPE] | 
4.9 ± 0.4 µM | 2.6 ± 0.1 µM | CCCCCCCC/C=C\CCCCCCCC(=O)O[C@H](COC(=O)CCCCCCCCCCCCCCC)COP(=O)(O)OCC(O)CO (some centres unmarked) [POPG] | 
 | 2.3 ± 0.3 µM | CCCCCCCC/C=C\CCCCCCCC(=O)O[C@H](COC(=O)CCCCCCCCCCCCCCC)COP(=O)(O)OC[C@H](N)C(=O)O [POPS] | 

The next lines start with the molecule.

Molecule | Kd (MsbA [2]) | Kd (MsbA [3]) | also measured
Nc1ncnc2c1ncn2[C@@H]1O[C@H](COP(=O)(O)OP(=O)(O)O)[C@@H](O)[C@H]1O [ADP] |  |  | cryoEM structure 3.6 Å and native MS (MsbA [1]; vanadate-trapped): there is clear density for ADP·VO4 in the NBDs
[O]=[V]([OH])([OH])[OH] [vanadate] |  |  | cryoEM structure 3.6 Å and native MS (MsbA [1]; ADP-vanadate-trapped): there is clear density for ADP·VO4 in the NBDs
MsbA (ATP-binding cassette transporter MsbA, Escherichia coli) (natural protein, MsbA, Escherichia coli, UniProt P60752; msbA gene amplified from E. coli genomic DNA into pCDF-1b (pCDF-MsbA), N-terminal TEV-cleavable His6; Homodimer; co-purifies with copper(II), one site per subunit at the N-terminus (Met-His-Asn-Asp); For cryo-EM it was loaded with copper(II), apo or trapped with ADP-vanadate, with KDL; also called wild-type MsbA; the transporter; source: E. coli (DE3) …) HNDKDLSTWQTFRRLWPTIAPFKAGLIVAGVALILNAASDTFMLSLLKPLLDDGFGKTDRSVLVWMPLVVIGLMILRGITSYVSSYCISWVSGKVVMTMRRRLFGHMMGMPVSFFDKQSTGTLLSRITYDSEQVASSSSGALITVVREGASIIGLFIMMFYYSWQLSIILIVLAPIVSIAIRVVSKRFRNISKNMQNTMGQVTTSAEQMLKGHKEVLIFGGQEVETKRFDKVSNRMRLQGMKMVSASSISDPIIQLIASLALAFVLYAASFPSVMDSLTAGTITVVFSSMIALMRPLKSLTNVNAQFQRGMAACQTLFTILDSEQEKDEGKRVIERATGDVEFRNVTFTYPGRDVPALRNINLKIPAGKTVALVGRSGSGKSTIASLITRFYDIDEGEILMDGHDLREYTLASLRNQVALVSQNVHLFNDTVANNIAYARTEQYSREQIEEAARMAYAMDFINKMDNGLDTVIGENGVLLSGGQRQRIAIARALLRDSPILILDEATSALDTESERAIQAALDELQKNRTSLVIAHRLSTIEKADEIVVVEDGVIVERGTHNDLLEHRGVYAQLHKMQFGQ |  |  | stoichiometry N [4]: 2
